Measurements from patent US7534766B2, “Glucuronide metabolites and epimers thereof of tigecycline” (Wyeth, priority 2004, dated 2009).
“Also recorded” adds a separate entry of the source.

Experiments:
[1] = male, human, in vivo
Description: An open-label, inpatient, multiple-dose tigecycline, single-dose [^14C]tigecycline metabolic disposition and mass balance study was performed in six healthy male volunteers. The clinical protocol called for twelve subjects. Of these twelve, six received the radioactive dose (subjects 1, 4, 5, 6, 7, and 8 with subject 8 later dropping out of the study.) Eligible subjects were selected based on inclusion/exclusion criteria, medical history, physical examination and additional procedures outlined in the study protocol. Each subject received a 100 mg loading dose on the morning of Day 1, followed by a 50 mg maintenance dose every 12 hours for an additional 5 doses. On the morning of study Day 4, six subjects received a single 50 mg dose of [^14C]tigecycline (50 μCi). Each tigecycline dose was administered via a 30-minute intravenous infusion.
Serum samples were collected for metabolite profiling prior to tigecycline dosing and 1, 4, 8, 24 and 48 hours following the [^14C]-labeled dose. For metabolite profiling, urine samples were collected at 0-4, 4-8, 8-24 and 24-48 hours and fecal samples were collected up to 48 hours following the [^14C]-labeled dose. Serum and urine samples, and fecal homogenates were shipped on dry ice to the Biotransformation Division of Drug Safety and Metabolism, Wyeth Research, Collegeville, Pa. The details of the sample collection and sample storage are described in the mass balance portion of the study. The 24-48 hour urine and fecal samples for subject #6 were incomplete since the subject withdrew from the study. While samples from this subject were used for metabolite profiling, the samples were not included in the mass balance calculations.
Urine samples for metabolite profiling were extracted, as discussed below, using a method previously developed and used for rat and dog urine samples. Urine samples that had been collected at various intervals up to 48 hours following the dose of [^14C]tigecycline were thawed on ice prior to extraction. Aliquots (1 mL) of the individual urine samples were transferred to clean tubes and 0.2 M EDTA, for a final concentration of 40 mM EDTA, was added. […] Samples were mixed, centrifuged and the supernatants analyzed for metabolites by HPLC radiochromatography with selected samples also analyzed by LC/MS.
HPLC analyses were performed using a Waters 2695 Alliance Separation Module (Waters Corp., Milford, Mass.), a Waters Model 2487 dual wavelength UV absorbance detector, set to monitor 350 nm, and was in-line with a Gilson 215 liquid handler (Gilson, Middleton, Wis.) equipped to collect fractions at 20 second intervals. Fractions were collected into 96-well deep well Luma plates and analyzed using TopCount NXT. The autosampler temperature was set to 4° C. […]

[2] = LC/MS detection of tigecycline metabolites in CD-1 mouse serum and urine after intravenous tigecycline
Description: Fifteen male CD-1 mice, with an average weight of 31.3 g at the time of dosing, were used. Animals were given food and water ad libitum. Mice in the 0.5 and 2 hour blood collection groups were housed in standard cages, while those in the 4 hour blood collection group were housed in metabolism cages for the collection of urine. Mice were dosed by the Bioresources Department at Wyeth Research, Collegeville, Pa.
For mice and rabbits, the intravenous dosing solutions was prepared by dissolving 50 mg of tigecycline in 5.0 mL of 0.9% sterile saline solution to make a working stock solution. The working stock solution was diluted with 0.9% sterile saline solution to 0.5 mg/mL for mice and 4 mg/mL for rabbits. The mouse dose (5 mg/kg, 10 mL/kg) was administered as a bolus injection via the tail vein. The rabbit dose (4 mg/kg, 1 mL/kg) was administered as a bolus injection via the marginal vein of the ear.
For mice (n=5/time point), blood (approximately 0.7 mL) was collected by cardiac puncture at 0.5, 2 and 4 hours following administration of tigecycline. For rabbits, blood (approximately 7 mL) was collected via the ear vein at 0.5, 2 and 6 hours following the tigecycline dose. Serum was separated following clot formation at room temperature and centrifugation for 15 minutes at 4° C. and 3000 rpm. The serum was transferred to a fresh tube and was stored at approximately −70° C. until analysis as described below under “Serum Sample Preparation for LC/MS Analysis. In addition, urine was collected from mice in the 4 hour blood collection group and was stored at approximately −70° C. until analysis, as described below under “Urine Sample Preparation for LC/MS Analysis.”
Mouse urine was thawed and an aliquot (1 mL) transferred to a fresh tube. The sample was centrifuged at 14,000 rpm and room temperature for 10 minutes using a Model 5415C Eppendorf centrifuge (Brinkmann Instruments, Westbury, N.Y.) to remove any particulates. The sample was then transferred to a fresh tube and was analyzed by LC/MS, as described below under “Liquid Chromatography/Mass Spectrometry Analysis.”.
Mouse and rabbit serum samples were pooled at each collection time and analyzed for tigecycline, its epimer, tigecycline glucuronide (M7 and its epimer M6), 9-aminominocycline (M3) and N-acetyl-9-aminominocycline (M9 and its epimer M8). Aliquots of serum (500 μL) were transferred to new tubes and deuterated tigecycline (30 ng/mL final concentration) was added as an internal standard (quantitative analysis only). EDTA (40 μL of 0.5 M EDTA) was added to each sample and the samples vortex mixed. Acetonitrile (500 μL) was added to each sample, samples were vortex mixed and denatured protein separated by centrifugation at 14,000 rpm and room temperature for 10 minutes using a Model 5415C Eppendorf centrifuge (Brinkmann Instruments). The supernatant was transferred to a fresh tube and the solvent evaporated under a stream of nitrogen using a Turbovap Model LV evaporator (Caliper Life Sciences, Hopkinton, Mass.).
The HPLC system used for mass spectrometric analysis was a Waters Alliance Model 2695 HPLC system (Waters Corp., Milford, Mass.). It was equipped with a built-in autosampler and a Model 996 diode array UV detector. The UV detector was set to monitor 210-400 nm. Separations for metabolite characterization were accomplished on a Phenomenex Luna C18(2) column (150×2.1 mm, 5 μm) (Phenomenex, Torrance, Calif.) equipped with a Keystone Uniguard C18 guard column (10×2.1 mm) (Thermo Electron Corp., Bellefonte, Pa.). The column temperature was 25° C. The flow rate was 0.2 mL/min. Mobile phase A was 10 mM ammonium acetate in water and mobile phase B was acetonitrile.

Row | percent of the urinary radioactivity [1] | observed in mouse urine by LC/MS ([2]; mouse, in vivo, iv, 5 mg/kg) | percent of the radioactivity in urine [1] | observed in mouse serum by LC/MS ([2]; male CD-1 mice, 5 mg/kg IV tigecycline, 0.5, 2, 4 hours, 5 mg/kg) | observed in mouse urine by LC/MS ([2]; male CD-1 mice, 5 mg/kg IV tigecycline, urine 0-4 hours) | Compound
1 | approximately 20% | detected | – | – | – | CN(C)c1cc(NC(=O)CNC(C)(C)C)c(O)c2c1C[C@H]1C[C@H]3C(N(C)C)C(O[C@@H]4O[C@H](C(=O)O)[C@@H](O)[C@H](O)[C@H]4O)=C(C(N)=O)C(=O)[C@@]3(O)C(O)=C1C2=O (stereo in doubt) [Metabolite M7, tigecycline glucuronide]
2 | – | – | 15-37% | – | – | CC(C)(C)NCC(=O)O [Metabolite M3a, t-butylaminoacetic acid]
3 | – | detected | less than 1% | – | – | CN(C)c1cc(NC(=O)CNC(C)(C)C)c(O)c2c1C[C@H]1C[C@H]3[C@@H](N(C)C)C(O[C@@H]4O[C@H](C(=O)O)[C@@H](O)[C@H](O)[C@H]4O)=C(C(N)=O)C(=O)[C@@]3(O)C(O)=C1C2=O [Metabolite M6, epimer of tigecycline glucuronide]
4 | – | – | – | observed; also recorded: detected | detected | CN(C)c1cc(NC(=O)CNC(C)(C)C)c(O)c2c1C[C@H]1C[C@H]3[C@H](N(C)C)C(O)=C(C(N)=O)C(=O)[C@@]3(O)C(O)=C1C2=O [Tigecycline]
